Molecules are shown by their SMILES. “And” between values parts separate entries of the source, which are not always exact repeats. Equal values may be shown once. Read-outs that look alike come from different tables or passages of the source.

The target of one series is T1, COX I (Rattus norvegicus, UniProt Q63921).
T1 construct: Rat whole blood; from tissue; host or cells: rat whole blood
T1 sequence (Q63921 27-602): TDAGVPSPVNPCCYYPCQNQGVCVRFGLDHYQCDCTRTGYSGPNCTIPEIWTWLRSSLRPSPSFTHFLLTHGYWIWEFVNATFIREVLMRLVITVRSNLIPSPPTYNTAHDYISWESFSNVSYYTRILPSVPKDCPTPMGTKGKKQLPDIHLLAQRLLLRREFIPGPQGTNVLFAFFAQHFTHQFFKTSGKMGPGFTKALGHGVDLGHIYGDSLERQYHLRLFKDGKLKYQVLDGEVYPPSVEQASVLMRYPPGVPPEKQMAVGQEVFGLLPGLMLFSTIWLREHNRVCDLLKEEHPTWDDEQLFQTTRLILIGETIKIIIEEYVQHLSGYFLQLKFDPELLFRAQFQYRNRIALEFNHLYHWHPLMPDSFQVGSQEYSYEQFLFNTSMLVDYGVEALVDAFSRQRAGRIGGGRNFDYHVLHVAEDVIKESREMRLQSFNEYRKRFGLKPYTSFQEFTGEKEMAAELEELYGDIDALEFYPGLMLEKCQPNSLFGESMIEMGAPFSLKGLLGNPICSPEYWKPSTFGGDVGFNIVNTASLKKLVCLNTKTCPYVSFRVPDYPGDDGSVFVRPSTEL
Briefly: TxB2 production in rat whole blood activated with A23187. It is filed as cell-based. Conditions: 15 min incubation; 30 min activation with A23187; EIA determination of TxB2; read-out: COX I IC50, inhibition of TxB2 production. Here is the method:
(§1) A summary of activities of Compound (16) against COX I and COX II in cell-free enzyme preparations and whole cells is presented in Table 1. The following abbreviations are used: AA is arachidonic acid, IL-1 is interleukin 1, PMA is phorbol myristate acetate, A23187 is a calcium ionophore (Sigma), BSA is bovine serum albumin and LPS is a lipopolysaccharide (Sigma).
Rat whole blood 15 min incubation with Compound (16)
EIA determination of TxB2

Series [1] relates to PGE2 levels in the air-pouch exudate. The series is described as follows: PGE2 in exudate of carrageenan-induced inflammation (air-pouch model) in rats. The conditions noted are these: Rattus norvegicus; 0.1-30 mg/kg, relative to vehicle; read-out: IC50, inhibition of PGE2 levels in the exudate. It is filed as in vivo, rat.
A short description of series [2]: Pharmacokinetics in rat and monkey. It is filed as in vivo. An excerpt:
The pharmacokinetics of Compound (16) was studied in rat and monkey after intravenous and oral administration in solution (ethanol/polyethylene glycol/water, 1/5/4) or SSV.

For a further series, the target named is T2, COX II (Homo sapiens, UniProt P35354).
T2 sequence (P35354 18-604): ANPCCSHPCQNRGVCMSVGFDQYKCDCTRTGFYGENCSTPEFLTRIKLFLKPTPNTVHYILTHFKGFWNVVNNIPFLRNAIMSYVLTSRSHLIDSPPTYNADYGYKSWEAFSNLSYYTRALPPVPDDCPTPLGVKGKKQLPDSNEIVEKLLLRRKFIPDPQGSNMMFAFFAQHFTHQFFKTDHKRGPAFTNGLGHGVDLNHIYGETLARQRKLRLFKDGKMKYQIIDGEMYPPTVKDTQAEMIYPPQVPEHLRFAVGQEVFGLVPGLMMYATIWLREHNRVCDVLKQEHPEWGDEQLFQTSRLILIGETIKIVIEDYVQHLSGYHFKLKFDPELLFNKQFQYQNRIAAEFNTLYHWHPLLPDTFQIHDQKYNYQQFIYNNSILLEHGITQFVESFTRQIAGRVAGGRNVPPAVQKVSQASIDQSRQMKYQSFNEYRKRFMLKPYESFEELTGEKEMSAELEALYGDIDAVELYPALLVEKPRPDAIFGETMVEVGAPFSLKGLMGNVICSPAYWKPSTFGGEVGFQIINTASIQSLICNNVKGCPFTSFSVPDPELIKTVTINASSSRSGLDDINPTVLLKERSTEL
The series is described as follows: PGE2 production in human foreskin fibroblasts stimulated with IL-1 and PMA. Format: cell-based. Further details: A 1.8 Kb DNA fragment containing the coding region of human COX II was generated by PCR; made in house; host or cells: Sf9 insect cells, baculovirus. Conditions: read-out: COX II IC50, inhibition of PGE2 production. As to the method: as §1
Human foreskin fibroblasts
30 min incubation with Compound (16)
16 hr admulation with IL-1 and PMA
washing, transfer to fresh media
EIA determination of PGE2
16 hr stimulation with IL-1 and PMA
RIA determination of PGE2

As a reminder, the IC50 is the concentration that inhibits the measured activity by half. As usually defined, the half-life is the time in which the quantity being followed falls by half. Usually bioavailability stands for dose-corrected exposure relative to a reference, in per cent. For `Cc1cc(Cc2ccc(=O)[nH]n2)n(C)c1C(=O)c1ccc(Cl)cc1` [Compound 16, 6-[1,4-dimethyl-5-(4chloro-benzoyl)-1H-pyrrol-2-ylmethyl]-2H-pyridazin-3-one], the IC50 at COX I was 6 µM and 5 µM and 4 µM; on COX II (30 min incubation, 10 min activation, 5 μM A23187, RIA determination of PGE2) it was 0.12 µM and 0.17 µM and 0.14 µM; at COX II (30 min incubation; a) 10 min activation with 5 μM A23187, EIA determination of PGE2), ≤ 0.1 µM; at COX II (30 min incubation; b) 10 min activation with 20 μM AA + FA-free BSA, EIA determination of PGE2) it was ~2.7 µM. The ED50 in series [1] lay within 0.7 to 2 mg/kg. Further, the dose proportionality result in series [2] (1-300 mg/kg) is “exhibited dose proportionality over a broad range of doses”. Besides, in series [2] (in vivo, after intravenous dosing), the half-life was 2 to 3 h. In series [2] (in vivo, rats and monkeys, oral), this molecule yielded a bioavailability of 40 to 80%.

The values above are taken from patent US5622948A, “Pyrrole pyridazine and pyridazinone anti-inflammatory agents” (Syntex (U.S.A.) Inc., priority 1994, dated 1997).
